Data reported in ChEMBL document CHEMBL1201862, “PubChem BioAssay data set” (2004).
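Following 48 hours of exposure in 96-well plates, responses at five concentrations were used to interpolate endpoints linearly. Abbreviation: GI50, concentration required for 50% inhibition of growth.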 The source made the active and inactive calls. Rule as the data show it: active = GI50 up to about 1.1 µM and inactive = higher.

Assays:
Experiment in all cases: growth of human tumour cells (NCI), 48 h
EKVX = tested on: EKVX
HL-60 = tested on: HL-60
SN12C = tested on: SN12C
CAKI-1 = tested on: CAKI-1
OVCAR-4 = tested on: OVCAR-4
SK-MEL-28 = tested on: SK-MEL-28
HOP-92 = tested on: HOP-92
COLO 205 = tested on: COLO 205
SF-268 = tested on: SF-268
K562 = tested on: K562
KM12 = tested on: KM12
SNB-19 = tested on: SNB-19
IGROV-1 = tested on: IGROV-1
HT-29 = tested on: HT-29
NCI/ADR-RES = tested on: NCI/ADR-RES
PC-3 = tested on: PC-3
MCF7 = tested on: MCF7
MDA-MB-231 = tested on: MDA-MB-231
T47D = tested on: T47D

## COP(=O)(OC)C(=O)N1N(c2ccc([N+](=O)[O-])cc2)C(=O)C(C)NC1(NNc1ccc([N+](=O)[O-])cc1)P(=O)(OC)OC (stereo unspecified)
EKVX
  GI50: > 100 µM (inactive)
HL-60
  GI50: 64.6 µM (inactive)
SN12C
  GI50: > 100 µM (inactive)
CAKI-1
  GI50: > 100 µM (inactive)
OVCAR-4
  GI50: > 100 µM (inactive)
SK-MEL-28
  GI50: > 100 µM (inactive)
HOP-92
  GI50: > 100 µM (inactive)
COLO 205
  GI50: > 100 µM (inactive)
SF-268
  GI50: > 100 µM (inactive)
K562
  GI50: > 100 µM (inactive)
KM12
  GI50: > 100 µM (inactive)
SNB-19
  GI50: > 100 µM (inactive)
IGROV-1
  GI50: > 100 µM (inactive)

## O=C1c2ccccc2C(=O)C2C1C1C(=O)c3ccccc3C(=O)C21 (stereo unspecified)
EKVX
  GI50: > 100 µM (inactive)
HL-60
  GI50: 58.9 µM (inactive)
SN12C
  GI50: > 100 µM (inactive)
CAKI-1
  GI50: > 100 µM (inactive)
OVCAR-4
  GI50: > 100 µM (inactive)
SK-MEL-28
  GI50: > 100 µM (inactive)
HOP-92
  GI50: > 100 µM (inactive)
HT-29
  GI50: > 100 µM (inactive)
COLO 205
  GI50: > 100 µM (inactive)
SF-268
  GI50: 78.2 µM (inactive)
K562
  GI50: > 100 µM (inactive)
KM12
  GI50: 49.7 µM (inactive)
SNB-19
  GI50: > 100 µM (inactive)
IGROV-1
  GI50: 79.1 µM (inactive)

## O=c1oc(C(C(F)(F)F)C(F)(F)F)nc2ccccc12
EKVX
  GI50: > 100 µM (inactive)
HL-60
  GI50: > 100 µM (inactive)
NCI/ADR-RES
  GI50: > 100 µM (inactive)
CAKI-1
  GI50: > 100 µM (inactive)
PC-3
  GI50: > 100 µM (inactive)
OVCAR-4
  GI50: > 100 µM (inactive)
MCF7
  GI50: > 100 µM (inactive)
SK-MEL-28
  GI50: > 100 µM (inactive)
HOP-92
  GI50: > 100 µM (inactive)
HT-29
  GI50: > 100 µM (inactive)
COLO 205
  GI50: > 100 µM (inactive)
MDA-MB-231
  GI50: > 100 µM (inactive)
K562
  GI50: > 100 µM (inactive)
SNB-19
  GI50: > 100 µM (inactive)
IGROV-1
  GI50: > 100 µM (inactive)

## O=C1COc2cccnc2N1CCCCO
EKVX
  GI50: > 100 µM (inactive)
HL-60
  GI50: > 100 µM (inactive)
SN12C
  GI50: > 100 µM (inactive)
CAKI-1
  GI50: > 100 µM (inactive)
PC-3
  GI50: > 100 µM (inactive)
MCF7
  GI50: > 100 µM (inactive)
SK-MEL-28
  GI50: > 100 µM (inactive)
HOP-92
  GI50: > 100 µM (inactive)
MDA-MB-231
  GI50: > 100 µM (inactive)
T47D
  GI50: 38.1 µM (inactive)
KM12
  GI50: > 100 µM (inactive)
SNB-19
  GI50: > 100 µM (inactive)
IGROV-1
  GI50: > 100 µM (inactive)

## C=C1CC[C@@H](CCC2CCC3(OC2)O[C@]2(O)CC[C@@]3(C)OC2(C)C)C(C)(C)[C@H]1C/C=C1\CCOC1=O (stereo partly specified)
EKVX
  GI50: 1.11 µM (active)
HL-60
  GI50: 1.36 µM (inactive)
NCI/ADR-RES
  GI50: 1.78 µM (inactive)
SN12C
  GI50: 16.6 µM (inactive)
CAKI-1
  GI50: 35.1 µM (inactive)
PC-3
  GI50: 4.61 µM (inactive)
OVCAR-4
  GI50: 12.3 µM (inactive)
MCF7
  GI50: 1.76 µM (inactive)
SK-MEL-28
  GI50: 26.1 µM (inactive)
HOP-92
  GI50: 10.5 µM (inactive)
HT-29
  GI50: 4.93 µM (inactive)
COLO 205
  GI50: 16.3 µM (inactive)
MDA-MB-231
  GI50: 23.6 µM (inactive)
SF-268
  GI50: 27.2 µM (inactive)
K562
  GI50: 0.0798 µM (active)
KM12
  GI50: 16.2 µM (inactive)
SNB-19
  GI50: 51.5 µM (inactive)
IGROV-1
  GI50: 18.5 µM (inactive)

## CCOC(=O)c1nnsc1NN
EKVX
  GI50: > 100 µM (inactive)
HL-60
  GI50: 10.5 µM (inactive)
NCI/ADR-RES
  GI50: > 100 µM (inactive)
SN12C
  GI50: > 100 µM (inactive)
CAKI-1
  GI50: 76.2 µM (inactive)
PC-3
  GI50: > 100 µM (inactive)
OVCAR-4
  GI50: > 100 µM (inactive)
MCF7
  GI50: 60.5 µM (inactive)
SK-MEL-28
  GI50: > 100 µM (inactive)
HOP-92
  GI50: > 100 µM (inactive)
HT-29
  GI50: 55.5 µM (inactive)
COLO 205
  GI50: > 100 µM (inactive)
MDA-MB-231
  GI50: 53.8 µM (inactive)
SF-268
  GI50: > 100 µM (inactive)
KM12
  GI50: 95.3 µM (inactive)
SNB-19
  GI50: > 100 µM (inactive)
IGROV-1
  GI50: > 100 µM (inactive)

## O=C(O)CCCc1nc2c(n1Cc1ccccc1)C(=O)c1ccccc1C2=O
EKVX
  GI50: 31.6 µM (inactive)
HL-60
  GI50: 29.1 µM (inactive)
NCI/ADR-RES
  GI50: 36.6 µM (inactive)
SN12C
  GI50: 36.9 µM (inactive)
CAKI-1
  GI50: > 100 µM (inactive)
OVCAR-4
  GI50: 20.2 µM (inactive)
MCF7
  GI50: 29.6 µM (inactive)
SK-MEL-28
  GI50: > 100 µM (inactive)
HOP-92
  GI50: 48.9 µM (inactive)
COLO 205
  GI50: 34.2 µM (inactive)
MDA-MB-231
  GI50: 47.9 µM (inactive)
SF-268
  GI50: 26.1 µM (inactive)
K562
  GI50: 42.7 µM (inactive)
T47D
  GI50: 60.5 µM (inactive)
KM12
  GI50: 43.7 µM (inactive)
SNB-19
  GI50: > 100 µM (inactive)
IGROV-1
  GI50: 59.3 µM (inactive)

## Cc1ccc(S(=O)(=O)Nn2c(O)c(C#N)c(-c3ccc(Cl)cc3)c(C#N)c2=O)cc1
EKVX
  GI50: > 100 µM (inactive)
HL-60
  GI50: > 100 µM (inactive)
NCI/ADR-RES
  GI50: > 100 µM (inactive)
SN12C
  GI50: > 100 µM (inactive)
CAKI-1
  GI50: > 100 µM (inactive)
PC-3
  GI50: > 100 µM (inactive)
OVCAR-4
  GI50: > 100 µM (inactive)
MCF7
  GI50: > 100 µM (inactive)
SK-MEL-28
  GI50: > 100 µM (inactive)
HOP-92
  GI50: > 100 µM (inactive)
HT-29
  GI50: > 100 µM (inactive)
COLO 205
  GI50: > 100 µM (inactive)
MDA-MB-231
  GI50: > 100 µM (inactive)
SF-268
  GI50: > 100 µM (inactive)
K562
  GI50: > 100 µM (inactive)
KM12
  GI50: > 100 µM (inactive)
SNB-19
  GI50: > 100 µM (inactive)
IGROV-1
  GI50: > 100 µM (inactive)

## COc1ccc(C2CC(=O)CC(c3ccc(OC)cc3)C23C(=O)NC(=S)NC3=O)cc1 (stereo unspecified)
EKVX
  GI50: > 100 µM (inactive)
HL-60
  GI50: > 100 µM (inactive)
NCI/ADR-RES
  GI50: > 100 µM (inactive)
SN12C
  GI50: > 100 µM (inactive)
CAKI-1
  GI50: > 100 µM (inactive)
PC-3
  GI50: > 100 µM (inactive)
OVCAR-4
  GI50: > 100 µM (inactive)
MCF7
  GI50: > 100 µM (inactive)
SK-MEL-28
  GI50: > 100 µM (inactive)
HOP-92
  GI50: > 100 µM (inactive)
HT-29
  GI50: > 100 µM (inactive)
COLO 205
  GI50: > 100 µM (inactive)
SF-268
  GI50: > 100 µM (inactive)
K562
  GI50: > 100 µM (inactive)
T47D
  GI50: > 100 µM (inactive)
KM12
  GI50: > 100 µM (inactive)
SNB-19
  GI50: > 100 µM (inactive)
IGROV-1
  GI50: > 100 µM (inactive)

## C/C(Cl)=N/OC(=O)Nc1ccc(F)c([N+](=O)[O-])c1
EKVX
  GI50: 16.3 µM (inactive)
HL-60
  GI50: 1.94 µM (inactive)
NCI/ADR-RES
  GI50: 30.3 µM (inactive)
SN12C
  GI50: 7.57 µM (inactive)
CAKI-1
  GI50: 1.79 µM (inactive)
PC-3
  GI50: 17.8 µM (inactive)
OVCAR-4
  GI50: 7.36 µM (inactive)
MCF7
  GI50: 15.2 µM (inactive)
SK-MEL-28
  GI50: 17.6 µM (inactive)
HOP-92
  GI50: 5.4 µM (inactive)
HT-29
  GI50: 19.6 µM (inactive)
COLO 205
  GI50: 2.34 µM (inactive)
MDA-MB-231
  GI50: 17.5 µM (inactive)
SF-268
  GI50: 15.4 µM (inactive)
K562
  GI50: 2.57 µM (inactive)
KM12
  GI50: 17.1 µM (inactive)
SNB-19
  GI50: 20.1 µM (inactive)
IGROV-1
  GI50: 6.97 µM (inactive)

## CC(OC(=O)NCn1cc(-c2ccccc2)nn1)c1ccccc1 (stereo unspecified)
EKVX
  GI50: 63.2 µM (inactive)
HL-60
  GI50: 27.8 µM (inactive)
NCI/ADR-RES
  GI50: 33.7 µM (inactive)
SN12C
  GI50: 97.1 µM (inactive)
CAKI-1
  GI50: > 100 µM (inactive)
PC-3
  GI50: 2.39 µM (inactive)
OVCAR-4
  GI50: > 10 µM (inactive)
MCF7
  GI50: 38.5 µM (inactive)
SK-MEL-28
  GI50: 97.9 µM (inactive)
HOP-92
  GI50: 56.2 µM (inactive)
HT-29
  GI50: 25.6 µM (inactive)
COLO 205
  GI50: 34.6 µM (inactive)
MDA-MB-231
  GI50: 34.3 µM (inactive)
K562
  GI50: 31.2 µM (inactive)
KM12
  GI50: 37.7 µM (inactive)
SNB-19
  GI50: > 100 µM (inactive)
IGROV-1
  GI50: 35.4 µM (inactive)

## O=C1/C(=C/c2cccc(Br)c2)Cc2ccccc21
EKVX
  GI50: 27.7 µM (inactive)
HL-60
  GI50: 68.7 µM (inactive)
NCI/ADR-RES
  GI50: 50.6 µM (inactive)
SN12C
  GI50: > 100 µM (inactive)
CAKI-1
  GI50: 75.7 µM (inactive)
PC-3
  GI50: 29.9 µM (inactive)
OVCAR-4
  GI50: 38.9 µM (inactive)
MCF7
  GI50: 3.66 µM (inactive)
SK-MEL-28
  GI50: > 100 µM (inactive)
HOP-92
  GI50: 24.8 µM (inactive)
HT-29
  GI50: 45 µM (inactive)
COLO 205
  GI50: 32.1 µM (inactive)
MDA-MB-231
  GI50: 44.9 µM (inactive)
SF-268
  GI50: 53.6 µM (inactive)
K562
  GI50: 58.9 µM (inactive)
KM12
  GI50: 19.3 µM (inactive)
SNB-19
  GI50: 50.6 µM (inactive)
IGROV-1
  GI50: 16.8 µM (inactive)
